{"source": "patent US20100144683A1", "about": "“METHODS FOR GENERATING MAMMALIAN MODELS OF ATOPIC DISEASES, AND SCREENING FOR THEIR TREATMENT” (ASSOCIATION POUR LA RECHERCHE A L'IGBMC (ARI), priority 2006, published 2010)", "key": {"[1]": {"system": "OVA-induced asthma mouse model", "test": "Ovalbumin (OVA)-induced asthma mouse model with ear topical MC903", "type": "in vivo", "settings": "MC903 1.125 nmole on each ear every other day, day 0 to 21, day 22", "experimental": "An experimental ovalbumin (OVA)-induced asthma mouse model was used. Mice were intraperitoneally injected with 50 μg OVA adsorbed on 2 mg aluminium hydroxide (Alum) on days 0 and 7, and were then challenged on days 18, 19, 20 and 21 by intranasal instillations of 10 μg OVA. As controls, mice were intraperitoneally injected with Alum, and receive intranasal instillations of saline. These mice were topically treated with either ethanol (as a control) or MC903 (1.125 nmole) on each ear every other day from day 0 to day 21 to generate an ear AD. Assessment of respiratory function, collection of bronchoalveolar lavage (BAL) and lung were performed on day 22. […] Aerosolized saline was used as control."}, "CYP24A1": {"system": "CYP24A1", "test": "CYP24A1 RNA level (Q-PCR) in MC903-treated ear", "type": "in vivo, mouse", "settings": "MC903 topically every day; D2-D4", "experimental": "(§1) 1α,25-(OH)2D3, or MC903 and ethanol (vehicle) were applied to WT mouse right and left ears, respectively. Two shaved areas (1 cm^2 each) of dorsal skin were also treated with MC903 or ethanol."}, "TSLP [2]": {"system": "TSLP", "test": "TSLP RNA level (Q-PCR) in skin and organs after topical application of NR agonists", "type": "in vivo, mouse", "settings": "increasing doses (MC903: 0.4, 1 or 4 nmoles per ear)"}, "VDR": {"system": "VDR", "test": "MC903 topical treatment of VDR control, VDRep-/- and VDR-/- mice", "type": "in vivo, mouse", "source_text": "To investigate whether the MC903-induced TSLP expression and appearance of an AD-like skin inflammation were mediated through VDR, MC903 was topically applied on ears of “floxed” VDR control (CT) mice (VDR^L2/L2 mice, in which both VDR alleles bear LoxP sites) and of their VDR^ep−/− littermates [K14-Cre^(tg/0)/VDR^L2/L2 mice in which the VDR alleles are selectively ablated in keratinocytes and which were obtained by crossing)K14-Cre^(tg/0) transgenic mice (LI et al., Development, vol. 128, p: 675-688, 2001) with floxed VDR^L2/L2 mice (our unpublished data)].\nThe FIGS. 3 a and b show the appearance of MC903-treated ears of VDR control (CT) (a) and VDR^ep−/− mice (b) at D17. White arrows in (a) points to lesioned skin.\nThe FIGS. 3 c and d show Hematoxylin and eosin-stained ear sections. Yellow arrows in inset of (c) point to three of many eosinophils (red cytoplasmic staining) in MC903-treated CT skin. Black arrows point to the dermal/epidermal junction. hf, hair follicle; u, utriculi (resulting from hair follicle degeneration in VDR^ep−/− mice). (Scale bar, 50 μm)."}, "serum IgE and IgG": {"system": "serum IgE and IgG", "test": "Serum IgE and IgG levels (ELISA)", "type": "in vivo, mouse", "settings": "MC903 topically for 16 days on ears"}, "cytokine RNA": {"system": "cytokine RNA", "test": "Cytokine RNA levels (Q-PCR) in treated ears", "type": "in vivo, mouse", "settings": "MC903 4 nmoles daily on ears; D16"}, "TSLP [3]": {"system": "TSLP", "test": "Serum TSLP levels after topical application", "type": "in vivo, mouse", "settings": "MC903 topical; D2-D4, undetectable at D0", "experimental": "as §1"}, "TSLP [4]": {"system": "TSLP", "test": "TSLP RNA level (Q-PCR) in skin and organs after topical application of NR agonists", "type": "in vivo, mouse", "experimental": "Four nmoles of ligands dissolved in ethanol were topically applied to whole ears of 6-8-week-old female CD1 wildtype (WT) mice for 4 consecutive days (D1 to D4), and TSLP RNA levels were determined on day 5.\nas §1"}, "RXR/VDR heterodimers": {"target": "T1, RXR/VDR heterodimers (Mus musculus, UniProt P48281)", "T1 construct": "from tissue; host or cells: mouse ear skin (epidermal keratinocytes), topical treatment in vivo", "T1 sequence (P48281 1-422)": "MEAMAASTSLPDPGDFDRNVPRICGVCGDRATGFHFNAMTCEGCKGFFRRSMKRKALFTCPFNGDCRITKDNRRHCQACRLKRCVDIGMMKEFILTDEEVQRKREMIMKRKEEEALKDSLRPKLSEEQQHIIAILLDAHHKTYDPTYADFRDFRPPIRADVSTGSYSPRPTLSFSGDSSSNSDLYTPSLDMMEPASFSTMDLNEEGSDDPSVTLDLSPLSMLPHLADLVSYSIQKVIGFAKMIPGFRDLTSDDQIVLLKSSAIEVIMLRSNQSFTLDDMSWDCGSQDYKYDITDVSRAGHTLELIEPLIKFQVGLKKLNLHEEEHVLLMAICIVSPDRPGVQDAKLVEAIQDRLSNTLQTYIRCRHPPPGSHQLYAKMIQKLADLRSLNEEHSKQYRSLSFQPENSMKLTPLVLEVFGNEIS", "test": "MC903 topical treatment of RXRαβep-/- mice, TSLP RNA (Q-PCR)", "type": "in vivo", "settings": "D4, versus RXRαβ CT", "source_text": "To examine whether the effect of MC903 was transduced through RXR/VDR heterodimers, ears of RXRαβ^ep−/− mice (tamoxifen-treated K14-Cre-ERT2^(tg/0)/RXRαβ^L2/L2/RXRβ^L2/L2; LI et al., 2005, abovementioned), as well as their control littermates (RXRαβ CT), were topically-treated with MC903."}, "eosinophils": {"system": "eosinophils", "test": "Blood and tissue eosinophilia", "type": "in vivo, mouse", "settings": "MC903-treated mice", "source_text": "FIG. 2 s show the hematoxylin and eosin-stained sections of ear draining lymph node and liver of ethanol- and MC903-treated mice at D17. Yellow arrows point to three of many eosinophils (red cytoplasmic staining) in sections of lymph node and liver of MC903-treated mice. (Scale bars, 50 μm)."}, "TSLP [5]": {"system": "TSLP", "test": "TSLP immunohistochemistry on ear and dorsal skin sections", "type": "in vivo, mouse", "settings": "MC903-treated ear and dorsal skin; D4", "source_text": "The white arrowhead points to autofluorescent erythrocytes, and white arrows point to the dermal/epidermal junction. (Scale bar, 50 μm)."}, "[6]": {"test": "Calcemia and overall health upon topical application", "type": "in vivo", "settings": "MC903 4 nmoles daily or 1α,25(OH)2D3 0.25 nmole every second day on ears, 16 days", "experimental": "1α,25-(OH)2D3, or MC903 and ethanol (vehicle) were applied to WT mouse right and left ears, respectively. Two shaved areas (1 cm^2 each) of dorsal skin were also treated with MC903 or ethanol. […]"}, "[7]": {"system": "ears of CD1 wildtype (WT) mice", "test": "AD-like phenotype upon long-term ear topical treatment (appearance, histology, IHC)", "type": "in vivo, mouse", "source_text": "White arrows point to the dermal/epidermal junction. FIGS. 2a and b show the ear appearance at day 17 after ethanol and MC903 treatment, respectively. FIGS. 2c and d show hematoxylin and eosin-stained (HE) ear sections of ethanol- and MC903-treated mice at day 17, respectively. Eosinophil-selective cytoplasmic red staining is pointed by arrows in the inset of (d). FIG. 2 u show hematoxylin and eosin-stained (HE) ear sections of ethanol- and 1α,25(OH)2D3 treated mice every second day, at a dose of 0.25 nmole, at day 18 (D18). FIGS. 2 e to n show the result of IHC performed on ear sections from ethanol- or MC903-treated mice at D17, with antibodies against GR1 (e and f), CD3 (g and h), CD4 (i and j), CD8 (k and l) and CD11c (m and n). Yellow color corresponds to staining of antibodies, whereas blue corresponds to DAPI staining of nuclei. FIGS. 2 o and p show the Toluidin blue (TB)-staining of ear sections. Red arrows point to one of the mast cells with intense blue color in the dermis."}}, "note": "“Also recorded” adds a separate entry of the source.", "data": [{"substance": "26,27-cyclo-22-ene-1α,24S-dihydroxyvitamin D3 [MC903]", "values": [{"measurement": "BAL cell numbers", "setting": "[1]; OVA model", "result": "higher BAL cell numbers"}, {"measurement": "airway epithelium hypertrophy (lung sections)", "setting": "[1]; OVA model", "result": "increased hypertrophy in airway epithelium"}, {"measurement": "lung inflammatory infiltration (lung sections)", "setting": "[1]; OVA model", "result": "higher perivascular and peribronchial lung inflammatory infiltrations; also recorded: enhanced airway inflammation"}, {"measurement": "airway hyperresponsiveness (AHR), whole-body plethysmography", "setting": "[1]; OVA sensitized and challenged", "result": "increased airway hyperresponsiveness"}, {"measurement": "CYP24A1 transcripts in treated ear", "setting": "CYP24A1", "result": "increased"}, {"measurement": "dose dependence of TSLP transcripts", "setting": "TSLP [2]", "result": "dose-dependent increase"}, {"measurement": "skin inflammation in VDR-/- mice", "setting": "VDR", "result": "no AD-like skin inflammation"}, {"measurement": "TSLP expression (Q-PCR) in skin of VDR CT mice", "setting": "VDR; D4", "result": "strongly induced"}, {"measurement": "TSLP expression (Q-PCR) in skin of VDR-/- mice", "setting": "VDR; D4", "result": "not at all"}, {"measurement": "TSLP expression (Q-PCR) in skin of VDRep-/- mutants", "setting": "VDR; D4", "result": "weakly increased"}, {"measurement": "ear inflammation in VDR CT mice", "setting": "VDR; D17", "result": "AD-like inflammation was obvious"}, {"measurement": "ear inflammation in VDRep-/- mice", "setting": "VDR; D17", "result": "did not show any sign of inflammation"}, {"measurement": "serum IgE and IgG levels", "setting": "serum IgE and IgG", "result": "increased"}, {"measurement": "TSLP transcripts in treated ears, long-term", "setting": "cytokine RNA", "result": "markedly increased"}, {"measurement": "Th2-type cytokine transcripts (IL-4, IL-5, IL-13, IL-31, IL10 and IL-6)", "setting": "cytokine RNA", "result": "significantly increased"}, {"measurement": "expression of Th1-type cytokine IFN-γ", "setting": "cytokine RNA", "result": "enhanced"}, {"measurement": "expression of Th1-type cytokine TNF-β", "setting": "cytokine RNA", "result": "unchanged"}, {"measurement": "serum TSLP levels", "setting": "TSLP [3]", "result": "increased"}, {"measurement": "TSLP RNA in treated dorsal skin", "setting": "TSLP [4]; MC903 on shaved dorsal skin (1 cm^2), D2-D4", "result": "increased"}, {"measurement": "TSLP RNA levels in treated right ear", "setting": "TSLP [4]; MC903 topically every day on right ear of WT mice, D2, D3, D4, ethanol on left ear", "result": "increased in right ears, and further increased on D3 and D4"}, {"measurement": "TSLP transcripts in other organs (lung, thymus, salivary gland, tongue, colon, spleen, lymph node, liver)", "setting": "TSLP [4]; MC903 topically on ears, D5", "result": "no increase"}, {"measurement": "induction of TSLP in RXRαβep-/- skin", "setting": "RXR/VDR heterodimers", "result": "severely reduced"}, {"measurement": "eosinophils in ear-draining lymph nodes, liver and spleen", "setting": "eosinophils; D16", "result": "increased number of eosinophils"}, {"measurement": "blood eosinophils (differential blood cell counts)", "setting": "eosinophils; ethanol-treated mice 204±134", "result": "693±220", "unit": "cells/μl"}, {"measurement": "TSLP expression by immunohistochemistry in epidermis", "setting": "TSLP [5]", "result": "readily detected"}, {"measurement": "hypercalcemia, overall health, weight loss", "setting": "[6]", "result": "No hypercalcemia or overall health impairment and weight loss"}, {"measurement": "ear appearance", "setting": "[7]; MC903 4 nmoles daily or 1α,25(OH)2D3 0.25 nmole every second day, from D5, D17", "result": "reddening and swelling, that worsened with time; also recorded: red, scaly, swollen and crusted"}, {"measurement": "ear histology (hematoxylin/eosin)", "setting": "[7]; MC903 4 nmoles daily, D17, 1α,25-(OH)2D3 0.25 nmole every other day, D18", "result": "epidermal hyperplasia and a heavy dermal cell infiltrate"}, {"measurement": "CD11c+ dermal dendritic cells (IHC)", "setting": "[7]; MC903-treated ears, D17", "result": "large increase"}, {"measurement": "GR1-positive cells in dermis (IHC)", "setting": "[7]; MC903-treated ears, D17", "result": "large number of positive cells"}, {"measurement": "T lymphocytes (CD3+) in dermis (IHC)", "setting": "[7]; MC903-treated ears, D17", "result": "Numerous"}, {"measurement": "increase of mast cells in the dermis", "setting": "[7]; MC903-treated ears, D17, Toluidin blue staining", "result": 4, "unit": "fold"}]}]}
